From ChEMBL document CHEMBL1133440, “Identification of a chemical tool for the orphan nuclear receptor FXR” (J Med Chem, 2000)

Molecular target: T1, Bile acid receptor (Homo sapiens) (UniProt Q96RI1)
T1 sequence (whole entry): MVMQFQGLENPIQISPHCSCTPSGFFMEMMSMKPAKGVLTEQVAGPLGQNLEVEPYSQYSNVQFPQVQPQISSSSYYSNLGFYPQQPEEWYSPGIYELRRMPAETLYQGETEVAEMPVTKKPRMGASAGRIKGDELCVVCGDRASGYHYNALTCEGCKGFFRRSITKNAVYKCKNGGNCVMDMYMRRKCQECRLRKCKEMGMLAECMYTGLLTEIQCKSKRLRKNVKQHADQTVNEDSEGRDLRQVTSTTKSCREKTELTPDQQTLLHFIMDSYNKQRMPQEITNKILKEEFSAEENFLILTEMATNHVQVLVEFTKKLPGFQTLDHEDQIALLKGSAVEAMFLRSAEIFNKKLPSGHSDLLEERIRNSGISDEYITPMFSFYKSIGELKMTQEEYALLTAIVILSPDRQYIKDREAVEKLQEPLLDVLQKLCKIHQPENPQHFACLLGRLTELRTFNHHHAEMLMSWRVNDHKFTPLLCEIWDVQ

- RE: 1.4
SMILES: CC(C)c1onc(-c2c(Cl)cccc2Cl)c1COc1ccc(/C=C/c2cccc(C(=O)O)c2)c(Cl)c1
